tested on: C3H/HeNCrj mice; experiment: Hair Regrowth Test; format: in vivo; details: 23 days of application; 0.1 ml of 0.1 w/v % ethanol solution on shaved back once a day; average of group (10 mice)
Description: By using C3H/HeNCrj mice, whose hair cycle was in resting stage, the experiment was performed according to the method of Ogawa et. al. (Normal and Abnormal Epidermal Differentiation, Edited by M. Seiji and I. A. Bernstein, Pages 159-170, 1982, Todai Shuppan). 10 mice were used in a group and the mice's hair within the area of 3×4 cm of the regions of back was shaved by a clipper and a shaver. 0.1 ml of ethanol (negative contrast) or ethanol solution of the tested compound (0.1 w/v %) was applied on the shaved portion once a day. For hair regrowth effect of the tested compound, the hair regrowth area of mice's region of back was measured and ratio of the hair regrowth area with respect to the shaved area was evaluated as hair regrowth area rate (%).

SMILES	Hair Regrowth Area Rate [%]
CCCCCCCCCCCCCCCCCCNC(=O)Oc1ccccc1CCC(=O)NCCCN(C)C [Compound 1, 2-[3-[[3-(Dimethylamino)propyl]amino]-3-oxopropyl]phenyl N-octadecylcarbamate]	69
CCCCCCCCCCCCCCCCCCNC(=O)Oc1ccccc1CCC(=O)NCCCN(C)C.Cl [Compound 2, 2-[3-[[3-(Dimethylamino)propyl]amino]-3-oxopropyl]phenyl N-octadecylcarbamate hydrochloride]	10

same assay, conditions: 24 days of application; 0.1 ml of 0.1 w/v % ethanol solution on shaved back once a day; average of group (10 mice)

SMILES	Hair Regrowth Area Rate [%]
CCCCCCCCCCCCCCCCCCNC(=O)Oc1ccccc1CCC(=O)NCCCN1CCOCC1 [Compound 5, 2-{3-[(3-Morpholinopropyl)amino]-3-oxopropyl}phenyl N-octadecylcarbamate]	16
CCCCCCCCCCCCCCCCCCOc1ccccc1CCC(=O)N1CCN(C)CC1.Cl [Compound 12, 1-(4-Methylpiperazino)-3-[2-(octadecyloxy)phenyl]-1-propanone hydrochloride]	38
CCCCCCCCCCCCCCCCCCNC(=O)Oc1ccccc1CCC(=O)N1CCN(C)CC1 [Compound 3, 2-[3-(4-Methylpiperazino)-3-oxopropyl]phenyl N-octadecylcarbamate]	100
CCCCCCCCCCCCCCCCCCOc1ccccc1CCC(=O)NCCCN(C)C.Cl [Compound 8, N-[3-(Dimethylamino)propyl]-3-[2-(octadecyloxy)phenyl]propanamide hydrochloride]	100
CCCCCCCCCCCCCCCCCCOc1ccccc1CCC(=O)NCCCN1CCOCC1.Cl [Compound 10, N-(3-Morpholinopropyl)-3-[2-(octadecyloxy)phenyl]propanamide hydrochloride]	38
CCCCCCCCCCCCCCCCCCNC(=O)Oc1ccccc1CCC(=O)N1CCN(C)CC1.Cl [Compound 4, 2-[3-(4-Methylpiperazino)-3-oxopropyl]phenyl N-octadecylcarbamate hydrochloride]	100
CCCCCCCCCCCCCCCCCCNC(=O)Oc1ccccc1CCC(=O)NCCCN1CCOCC1.Cl [Compound 6, 2-{3-[(3-Morpholinopropyl)amino]-3-oxopropyl}phenyl N-octadecylcarbamate hydrochloride]	17
